# Source: paper PMC4401541, “Structure- and Ligand-Based Virtual Screening Identifies New Scaffolds for Inhibitors of the Oncoprotein MDM2” (PLoS ONE, 2015)
# Key:
# [1] = target: T1, MDM2-N (Homo sapiens, UniProt Q00987); experiment: Competitive capillary electrophoresis (CE) assay, compound vs fluorescently labelled p53 peptide (p53-F); format: binding; conditions: for inhibition at 300 µM: read-out: CE % inhibition at 300 μM; for activity in the assays: CE and FP screening assays
# Description: Capillary electrophoresis (CE) is an analytical technique used to study the interaction between biomacromolecules. In CE, electrophoresis is carried out in the interior of a narrow capillary. The technique separates ions based on their electrophoretic mobility with the use of applied voltage. The electrophoretic mobility is dependent on the charge of the molecule, the viscosity and the molecular size. CE is performed using a high voltage to produce a high resolution profile with a short migration time to separate numerous analytes. […] The assay provides a high sensitivity through the use of a Laser Induced Fluorescence (LIF) detector to enable the detection of weak binding fragments. This enables the interaction assay to be performed with a low labelled probe concentration and allows compounds to be screened at low concentrations. A competitive CE assay was used to detect competition between compounds and fluorescently labelled p53 peptide (p53-F) in MDM2-N/p53 binding site. The injection sample contained carboxyfluorescein (internal standard (10pM)) and p53-F (500pM) in TAPS/Tris (1mM) pH 8.0, DTT (1mM). […] After injection of the sample, a voltage of 10kV was applied and separation was carried out for 6.5min.
# TR is the migration time of p53-F peak.
# TL is the migration time of p53-F peak in the presence of MDM2-N + compound.
# [2] = target: T1, MDM2-N; experiment: Fluorescence polarization (FP) competition assay with p53-F; format: binding; conditions: read-out: FP % inhibition at 700 μM; compound 700 μM; MDM2-N 500 nM; p53-F 2 nM
# Description: Fluorescence polarization experiments were performed with a LJL Biosystems Analyst multi-plate reader in 50mM HEPES pH 7.5, 100mM NaCl, 1mM DTT. Fluorescein labelled p53 peptide (p53-F) was synthesised by Biomatiks. […] The competition experiments were carried out by mixing MDM2-N (500nM), p53-F (2nM) and test compound in black NBS plate. […] The inhibition (%) was calculated using the equation below. %Inhibition=100(AF-AL)/(AF-AU) Where: AF is the anisotropy of fully bound p53-F.
# AU is the anisotropy of unbound p53-F.
# AL is the anisotropy of p53-F in the presence of MDM2-N + compound.
# [3] = Solubility of the fragments in assay buffer; format: physicochemical; conditions: aqueous buffer, read-out: Estimated solubility limit
# Description: Supplement pone.0121424.s006.docx, table 5 | column: Estimated solubility limit
# [4] = system: MDM2; conditions: read-out: literature IC50 value for racemic Nutlin-3; cited from earlier work
SMILES,inhibition at 300 µM [1] [%],inhibition at 700 µM [2] [%],solubility [3] [µM],activity in the assays [1],IC50 [4] [nM]
Nc1ccc(Nc2ccccc2)cc1 [Compound 44],30,8,62.5 to 125,–,–
c1ccc(Nc2ccccc2)cc1 [Compound 43],36,33,250 to 500,–,–
Oc1ccc(Nc2ccccc2)cc1 [Compound 42],52,60,250 to 500,–,–
O=C(NCc1ccccc1)N(c1ccccc1)c1ccccc1 [Compound 19],42,18,–,–,–
O=C(O)c1ccccc1Nc1ccccc1 [Compound 45],–,–,> 1000,–,–
O=C1Cc2ccccc2N1 [Compound 40],28,8,> 2000,–,–
O=C1N[C@@](O)(c2ccccc2)c2ccccc21 [Compound 39],40,13,–,–,–
Oc1cccc(Nc2ccccc2)c1 [Compound 41],66,31,250 to 500,–,–
CC1CCN(c2nc3c(c(=O)n(C)c(=O)n3C)n2CC(=O)c2ccccc2)CC1 [Compound 26],–,–,–,inactive,–
CCn1c(=O)c2c(nc(-n3nc(C)cc3C)n2Cc2ccc(F)cc2)n(C)c1=O [Compound 25],–,–,–,inactive,–
